# Source: patent US20240043384A1, “INHIBITORS OF PU.1 FOR THE TREATMENT OF DISEASE” (Board of Regents, The University of Texas System, priority 2021, published 2024)
# System: THP-1 CD14
# Assay: THP-1 CD14 Screening Assay
# Type: cell-based
# Conditions: Homo sapiens, THP-1, 72 h, THP-1 cells treated with PMA and compound (5-point 10-fold dilution), human CD14 ELISA on media
# Protocol: THP-1 CD14 Screening Assay Protocol:
# 5×10^4 THP-1 cells were plated per well in a tissue culture-treated 96-well plate. At the time of plating, cells were treated with a final concentration of […] PMA and 0.04% DMSO vehicle, concominant with compounds in a 5-point 10-fold dilution per compound. Cells were treated with PMA and DMSO as a control for differentiation without compound treatment, and with only DMSO as a control for no differentiation and no compound treatment. 500 nM IACS-71432 was added as a control compound across all assay plates.
# After incubation at 37° C./5% CO2 for 72 hr, media was collected from the cells and the screening assay was performed using the commercially-available human CD14 SimpleStep ELISA kit from Abcam, according to the following protocol: • 1) ELISA kits were taken out to equilibrate to rt. • 2) Following the protocol listed in the kit, standards were prepared as 1:1 dilutions from 2 ng/ml. • 3) Following the protocol listed in the kit, antibody cocktail was prepared (the volume is contingent on the number of wells required). • 4) 50 μl of standards were added to the appropriate wells, thoroughly mizing the standards before adding to each well. • 5) 25 μl of Sample Diluent (from kit) was added to all sample wells. • 6) Cell plates were centrifuged for 5 min at 300 rcf, with slow acceleration and slow deceleration. • 7) 25 μl of media from cell plates was transferred to assay plates containing standards. • 8) 50 μl of antibody cocktail was added to all of the wells, standards and samples. • 9) Assay plates were sealed tightly and incubated on the plate shaker at 400 rpm for 1 hr at rt. • 10) Wash buffer was prepared following the protocol listed in the kit. • 11) After the hour incubation, assay plates were washed 5 times using 200 μl wash buffer per well per wash. • 12) 100 μl of TMB substrate was added to each well in the dark and incubated on the shaker for 3-4.min, at which point color development was monitored to ensure a robust signal for detection but to avoid oversaturation of signal, for no longer than 10 min. • 13) The absorbance at 607 nm was read on a Perkin Elmer Envision plate reader. • 14) Data was processed using Microsoft Excel and GraphPad Prism.
row,Compound,IC50 [nM]
1,"O=S(=O)(NCc1ccncc1)c1ccc(C2=CCCC2)cc1 [Example 1, 4-(Cyclopent-1-en-1-yl)-N-(pyridin-4-ylmethyl)benzenesulfonamide]",5 to 100
2,"O=S(=O)(NCc1ccncc1)c1ccc(C2CCCC2)cc1 [Example 2, 4-cyclopentyl-N-(pyridin-4-ylmethyl)benzenesulfonamide]",< 5
3,"CN1CCN(c2ccc(S(=O)(=O)NCc3ccncc3)cc2)CC1 [Example 3, 4-(4-methylpiperazin-1-yl)-N-(pyridin-4-ylmethyl)benzenesulfonamide]",100 to 500
4,"O=S(=O)(NCc1ccncc1)c1ccc(-c2cccnc2)cc1 [Example 4, 4-(pyridin-3-yl)-N-(pyridin-4-ylmethyl)benzenesulfonamide]",100 to 500
5,"O=S(=O)(NCc1ccncc1)c1ccc(-c2cccc(Cl)n2)cc1 [Example 5, 4-(6-chloropyridin-2-yl)-N-(pyridin-4-ylmethyl)benzenesulfonamide]",100 to 500
6,"O=S(=O)(Nc1cccc2cnccc12)c1ccc(C2CCCCC2)cc1 [Example 6, 4-Cyclohexyl-N-(isoquinolin-5-yl)benzenesulfonamide]",< 5
7,"O=S(=O)(Nc1cccc2cnccc12)c1ccc(C2CCOCC2)cc1 [Example 7, N-(Isoquinolin-5-yl)-4-(tetrahydro-2H-pyran-4-yl)enzenesulfonamide]",< 5
8,"O=S(=O)(NCc1ccnc(F)c1)c1ccc(C2CCCCC2)cc1 [Example 8, 4-cyclohexyl-N-((2-fluoropyridin-4-yl)methyl)benzenesulfonamide]",< 5
9,"Nc1cc(CNS(=O)(=O)c2ccc(C3CCCCC3)cc2)ccn1 [Example 9, N-((2-aminopyridin-4-yl)methyl)-4-cyclohexylbenzenesulfonamide]",< 5
10,"CC(=O)Nc1cc(CNS(=O)(=O)c2ccc(C3CCCCC3)cc2)ccn1 [Example 10, N-(4-(((4-cyclohexylphenyl)sulfonamido)methyl)pyridin-2-yl)acetamide]",5 to 100
11,"O=S(=O)(NCc1ccncc1)c1ccc(OCC2CCCO2)cc1 (centres unmarked) [Example 11, N-(pyridin-4-ylmethyl)-4-((tetrahydrofuran-2-yl)methoxy)benzenesulfonamide]",< 5
12,"O=S(=O)(NCc1ccncc1)c1ccc(C2=CCOCC2)cc1 [Example 12, 4-(3,6-dihydro-2H-pyran-4-yl)-N-(pyridin-4-ylmethyl)-benzenesulfonamide]",5 to 100
13,"CN1CC=C(c2ccc(S(=O)(=O)NCc3ccncc3)cc2)CC1 [Example 13, 4-(1-methyl-1,2,3,6-tetrahydropyridin-4-yl)-N-(pyridin-4-ylmethyl)-benzenesulfonamide]",100 to 500
14,"O=S(=O)(NCc1ccncc1)c1ccc(C2=CCC(F)(F)CC2)cc1 [Example 14, 4′,4′-difluoro-N-(pyridin-4-ylmethyl)-2′,3′,4′,5′-tetrahydro-[1,1′-biphenyl]-4-sulfonamide]",< 5
15,"O=S(=O)(NCc1ccncc1)c1ccc(C2CCC(F)(F)CC2)cc1 [Example 15, 4-(4,4-difluorocyclohexyl)-N-(pyridin-4-ylmethyl)-benzenesulfonamide]",< 5
16,"O=S(=O)(NCc1ccncc1)c1ccc(C2CCOCC2)cc1 [Example 16, N-(pyridin-4-ylmethyl)-4-(tetrahydro-2H-pyran-4-yl)-benzenesulfonamide]",< 5
17,"O=S(=O)(NCc1ccncc1)c1ccc(C2CCCOC2)cc1 (centres unmarked) [Example 17, N-(pyridin-4-ylmethyl)-4-(tetrahydro-2H-pyran-3-yl)-benzenesulfonamide]",< 5
18,"O=S1(=O)CCC(c2ccc(S(=O)(=O)NCc3ccncc3)cc2)CC1 [Example 18, 4-(1,1-dioxotetrahydro-2H-thiopyran-4-yl)-N-(pyridin-4-ylmethyl)-benzenesulfonamide]",> 500
19,"O=S(=O)(NCc1ccncc1)c1ccc(C2CCOC2)cc1 (centres unmarked) [Example 19, N-(pyridin-4-ylmethyl)-4-(tetrahydrofuran-3-yl)-benzenesulfonamide]",5 to 100
20,"CC1(C)CCC(c2ccc(S(=O)(=O)NCc3ccncc3)cc2)CC1 [Example 20, 4-(4,4-dimethyl-cyclohexyl)-N-(pyridin-4-ylmethyl) benzenesulfonamide]",< 5

# Results, then the compound that gave them:
row,IC50 [nM],Compound
1,> 500,"CC(=O)N1CCC(c2ccc(S(=O)(=O)NCc3ccncc3)cc2)C1 (centres unmarked) [Example 21, 4-(1-acetylpyrrolidin-3-yl)-N-(pyridin-4-ylmethyl)-benzenesulfonamide]"
2,5 to 100,"O=S(=O)(NCc1ccncc1)c1ccc(N2CCCCC2)cc1 [Example 22, 4-(piperidin-1-yl)-N-(pyridin-4-ylmethyl)-benzenesulfonamide]"
3,5 to 100,"O=S(=O)(NCc1ccncc1)c1ccc(N2CCC(F)(F)CC2)cc1 [Example 23, 4-(4,4-difluoropiperidin-1-yl)-N-(pyridin-4-ylmethyl)-benzenesulfonamide]"
4,100 to 500,"O=S(=O)(NCc1ccncc1)c1ccc(N2CCOCC2)cc1 [Example 24, 4-morpholino-N-(pyridin-4-ylmethyl)benzenesulfonamide]"
5,5 to 100,"O=S(=O)(NCc1ccncc1)c1ccc(N2CCCC2)cc1 [Example 25, N-(pyridin-4-ylmethyl)-4-(pyrrolidin-1-yl)benzenesulfonamide]"
6,5 to 100,"CC1(C)CCN(c2ccc(S(=O)(=O)NCc3ccncc3)cc2)C1 [Example 26, 4-(3,3-dimethylpyrrolidin-1-yl)-N-(pyridin-4-yl-methyl)benzenesulfonamide]"
7,5 to 100,"O=S(=O)(NCc1ccncc1)c1ccc(N2CCCC(F)(F)C2)cc1 [Example 27, 4-(3,3-difluoropiperidin-1-yl)-N-(pyridin-4-ylmethyl)-benzenesulfonamide]"
8,5 to 100,"CC1CCN(c2ccc(S(=O)(=O)NCc3ccncc3)cc2)C1 (centres unmarked) [Example 28, 4-(3-methylpyrrolidin-1-yl)-N-(pyridin-4-ylmethyl)-benzenesulfonamide]"
9,5 to 100,"O=S(=O)(NCc1ccncc1)c1ccc(N2CCC(F)(F)C2)cc1 [Example 29, 4-(3,3-difluoropyrrolidin-1-yl)-N-(pyridin-4-ylmethyl)-benzenesulfonamide]"
10,5 to 100,"O=S(=O)(NCc1ccncc1)c1ccc(N2CCCC(F)C2)cc1 (centres unmarked) [Example 30, 4-(3-fluoropiperidin-1-yl)-N-(pyridin-4-ylmethyl)-benzenesulfonamide]"
11,5 to 100,"CC1(C)CN(c2ccc(S(=O)(=O)NCc3ccncc3)cc2)C1 [Example 32, 4-(3,3-dimethylazetidin-1-yl)-N-[(pyridin-4-yl)methyl]benzene-1-sulfonamide]"
12,5 to 100,"O=S(=O)(NCc1ccncc1)c1ccc(N2CC3(CCC3)C2)cc1 [Example 33, N-(pyridin-4-ylmethyl)-4-(2-azaspiro[3.3]heptan-2-yl)benzenesulfonamide]"
13,5 to 100,"O=S(=O)(NCc1ccncc1)c1ccc(N2CC3(C2)CC(F)(F)C3)cc1 [Example 34, 4-(6,6-difluoro-2-azaspiro[3.3]heptan-2-yl)-N-(pyridin-4-ylmethyl)-benzenesulfonamide]"
14,< 5,"O=S(=O)(NCc1ccncc1)c1ccc(N2CCC3(CC2)CC3)cc1 [Example 35, N-(pyridin-4-ylmethyl)-4-(6-azaspiro[2.5]octan-6-yl)-benzenesulfonamide]"
15,< 5,"CC1(C)CCN(c2ccc(S(=O)(=O)NCc3ccncc3)cc2)CC1 [Example 36, 4-(4,4-dimethylpiperidin-1-yl)-N-(pyridin-4-ylmethyl)-benzenesulfonamide]"
16,< 5,"O=S(=O)(NCc1ccncc1)c1ccc(-c2ccccc2)cc1 [Example 37, N-(pyridin-4-ylmethyl)-[1,1′-biphenyl]-4-sulfonamide]"
17,5 to 100,"O=S(=O)(NCc1ccncc1)c1ccc(-c2ccncc2)cc1 [Example 38, 4-(pyridin-4-yl)-N-(pyridin-4-ylmethyl)benzenesulfonamide]"
18,< 5,"Cc1cnccc1-c1ccc(S(=O)(=O)NCc2ccncc2)cc1 [Example 39, 4-(3-methylpyridin-4-yl)-N-(pyridin-4-ylmethyl)-benzenesulfonamide]"

# Same assay, conditions: THP-1 cells treated with PMA and compound (5-point 10-fold dilution), 72 hr; human CD14 ELISA on media
row,IC50 [nM],Compound
1,< 5,"Cc1nc2cc(-c3ccc(S(=O)(=O)NCc4ccncc4)cc3)ccc2s1 [49 (a), 4-(2-methyl-benzo[d]thiazol-5-yl)-N-(pyridin-4-ylmethyl)-benzenesulfonamide]"
2,100 to 500,"Cc1nc2cc(-c3ccc(S(=O)(=O)NCc4ccncc4)cc3)ccc2s1 [49 (b), 4-(2-methyl-benzo[d]thiazol-5-yl)-N-(pyridin-4-ylmethyl)-benzenesulfonamide]"
3,< 5,"O=S(=O)(NCc1ccncc1)c1ccc(N2CCCC(F)(F)C2)cc1 [Example 31, 4-(3,3-difluoropiperidin-1-yl)-N-(pyridin-4-ylmethyl)-benzenesulfonamide]"
